Laboratory results published in ChEMBL document CHEMBL1141392, “Green tea catechins potentiate triclosan binding to enoyl-ACP reductase from Plasmodium falciparum (PfENR)” (J Med Chem, 2007).

Columns and labels:
[1] = biological target: T1, Enoyl-[acyl-carrier-protein] reductase [NADH] FabI (Escherichia coli K-12, UniProt P0AEK4); assay: Inhibition of Escherichia coli ENR
T1 sequence (P0AEK4 whole entry): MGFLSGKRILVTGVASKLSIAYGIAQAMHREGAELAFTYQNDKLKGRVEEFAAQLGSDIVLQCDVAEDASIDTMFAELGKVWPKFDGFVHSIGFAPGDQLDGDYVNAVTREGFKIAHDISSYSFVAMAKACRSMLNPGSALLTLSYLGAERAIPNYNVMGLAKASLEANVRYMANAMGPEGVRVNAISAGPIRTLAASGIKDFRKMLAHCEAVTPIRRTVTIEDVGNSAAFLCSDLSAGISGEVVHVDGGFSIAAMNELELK

[2] = biological target: T2, Enoyl-acyl-carrier protein reductase (Plasmodium falciparum, UniProt Q965D5); assay: Inhibition of Plasmodium falciparum ENR using crotonyl-CoA substrate
T2 sequence (Q965D5 whole entry): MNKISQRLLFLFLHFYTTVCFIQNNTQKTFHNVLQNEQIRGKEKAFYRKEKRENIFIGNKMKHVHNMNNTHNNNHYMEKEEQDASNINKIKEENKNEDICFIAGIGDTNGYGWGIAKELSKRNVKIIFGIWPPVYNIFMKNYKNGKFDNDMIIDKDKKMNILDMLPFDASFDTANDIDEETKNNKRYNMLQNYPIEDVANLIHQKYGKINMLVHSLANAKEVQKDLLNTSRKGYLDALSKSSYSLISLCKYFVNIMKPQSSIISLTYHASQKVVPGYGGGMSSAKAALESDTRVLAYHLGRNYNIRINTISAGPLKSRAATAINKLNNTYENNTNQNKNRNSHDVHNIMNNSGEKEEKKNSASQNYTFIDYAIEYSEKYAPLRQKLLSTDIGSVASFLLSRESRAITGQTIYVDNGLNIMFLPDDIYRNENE

[3] = biological target: T2, Enoyl-acyl-carrier protein reductase; assay: Inhibition of Plasmodium falciparum ENR
[4] = biological target: T2, Enoyl-acyl-carrier protein reductase; assay: Inhibition of Plasmodium falciparum ENR using NADH substrate
[5] = biological target: T2, Enoyl-acyl-carrier protein reductase; assay: Inhibition of Plasmodium falciparum ENR in presence of triclosan
[6] = biological target: T2, Enoyl-acyl-carrier protein reductase; assay: Inhibition of Plasmodium falciparum ENR in presence of quercetin by dilution assay
[7] = biological target: T2, Enoyl-acyl-carrier protein reductase; assay: Inhibition of Plasmodium falciparum ENR by fluorescence quenching in presence of EGC
[8] = biological target: T2, Enoyl-acyl-carrier protein reductase; assay: Inhibition of Plasmodium falciparum ENR in presence of EGCG by dilution assay
[9] = biological target: T2, Enoyl-acyl-carrier protein reductase; assay: Inhibition of Plasmodium falciparum ENR by fluorescence quenching in presence of butein
[10] = biological target: T2, Enoyl-acyl-carrier protein reductase; assay: Inhibition of Plasmodium falciparum ENR by fluorescence quenching in presence of quercetin
[11] = biological target: T2, Enoyl-acyl-carrier protein reductase; assay: Inhibition of Plasmodium falciparum ENR in presence of ECG
[12] = biological target: T2, Enoyl-acyl-carrier protein reductase; assay: Inhibition of Plasmodium falciparum ENR in presence of quercetin
[13] = biological target: T2, Enoyl-acyl-carrier protein reductase; assay: Inhibition of Plasmodium falciparum ENR in presence of EGC by dilution assay
[14] = biological target: T2, Enoyl-acyl-carrier protein reductase; assay: Inhibition of Plasmodium falciparum ENR by fluorescence quenching in presence of EGCG
[15] = biological target: T2, Enoyl-acyl-carrier protein reductase; assay: Inhibition of Plasmodium falciparum ENR in presence of EGC
[16] = biological target: T2, Enoyl-acyl-carrier protein reductase; assay: Inhibition of Plasmodium falciparum ENR in presence of butein by dilution assay
[17] = biological target: T2, Enoyl-acyl-carrier protein reductase; assay: Inhibition of Plasmodium falciparum ENR by fluorescence quenching in presence of ECG
[18] = biological target: T2, Enoyl-acyl-carrier protein reductase; assay: Inhibition of Plasmodium falciparum ENR in presence of EGCG
[19] = biological target: T2, Enoyl-acyl-carrier protein reductase; assay: Inhibition of Plasmodium falciparum ENR in presence of butein
[20] = biological target: T2, Enoyl-acyl-carrier protein reductase; assay: Inhibition of Plasmodium falciparum ENR in presence of ECG by dilution assay

SMILES	IC50 [1]	Ki [2]	IC50 [3]	Ki [4]	Ki [5]	further results
O=C(/C=C/c1ccc(O)c(O)c1)c1ccc(O)cc1O [BUTEIN]	30000 nM	2970 nM	12500 nM	5500 nM	14 nM	–
O=C(O[C@@H]1Cc2c(O)cc(O)cc2O[C@@H]1c1ccc(O)c(O)c1)c1cc(O)c(O)c(O)c1 [EPICATECHIN GALLATE]	10000 nM	102 nM	500 nM	291 nM	16 nM	–
Oc1cc(O)c2c(c1)O[C@H](c1cc(O)c(O)c(O)c1)[C@H](O)C2 [EPIGALLOCATECHIN]	> 100000 nM	2000 nM	7000 nM	3750 nM	17.6 nM	–
O=C(O[C@@H]1Cc2c(O)cc(O)cc2O[C@@H]1c1cc(O)c(O)c(O)c1)c1cc(O)c(O)c(O)c1 [EPIGALOCATECHIN GALLATE]	15000 nM	79 nM	250 nM	186 nM	8 nM	–
O=c1c(O)c(-c2ccc(O)c(O)c2)oc2cc(O)cc(O)c12 [QUERCETIN]	20000 nM	473 nM	2500 nM	1090 nM	22 nM	–
Oc1cc(Cl)ccc1Oc1ccc(Cl)cc1Cl [TRICLOSAN]	–	–	–	–	–	Ki [6]: 0.281 nM; Ki [7]: 52.7 nM; Ki [8]: 0.0019 nM; Ki [9]: 71 nM; Ki [10]: 30.5 nM; Ki [11]: 8 nM; Ki [12]: 10 nM; Ki [13]: 0.109 nM; Ki [14]: 7.29 nM; Ki [15]: 8.25 nM; Ki [16]: 0.798 nM; Ki [17]: 28.3 nM; Ki [18]: 1 nM; Ki [19]: 13.7 nM; Ki [20]: 0.0521 nM
